Measured values from patent publication US20040186166A1, “Cannabinoid analogs as peroxisome proliferator activated nuclear receptor gamma activators” (priority 2002, published 2004).

What was measured:
human IL-8 promoter [1] = assay: IL-8 promoter luciferase assay, HeLa cells with wild type PPARγ; type: cell-based; details: GW347845 control
Protocol: (§1) For PPARγ activation assay, HEK293 cells were plated in 12-well cell culture plates and maintained in Dulbecco's modified Eagle's medium (DMEM) supplemented with 10% fetal bovine serum (FBS) at 37° C. under 5% CO2. Cells were changed to phenol red-free DMEM supplemented with 10% charcoal-stripped fetal bovine serum 3 hours before transfection by a standard calcium-phosphate precipitation method. Twelve hours after transfection, the cells were washed with phosphate-buffered saline (PBS) and fed again with fresh medium containing the indicated concentrations of compounds. After 36 hours, cells were harvested for β-galactosidase and luciferase activities as described previously (Li et al., Proc Natl Acad Sci USA 94:8479-84, 1997). The average normalized luciferase activity was determined via triplicate experiments. For IL-8 promoter assay, HeLa cells were maintained and transfected in the same way as described above. After transfection, cells were recovered for 4 hours before treatment with AJA, GW347845, or solvent. After 3-4 hours, cells were treated with or without 25 nM of phorbol myristate acetate (PMA) for 24 hours.
The IL-8 luciferase reporter controlled by the human IL-8 promoter (-97/-69) was cotransfected with mPPARγ or mPPARγ ΔAF2 mutant into HeLa cells. After transfection, cells were treated with AJA, GW347845 or solvent after PMA treatment for 24 hours. This was performed by determining the effect of AJA on IL-8 promoter activity and the role of PPARγ in this process. IL-8 is a biomarker for inflammation, and reduction of IL-8 levels correlates with a decrease in inflammation. The involvement of PPARγ in regulating IL-8 promoter activity was determined by comparing the IL-8 promoter activity in the presence of wild type PPARγ or its ΔAF2 mutant. In the experiment illustrated in FIG. 6A, PMA stimulated IL-8 promoter activity 3 fold, which was set as 100% promoter activity.

human IL-8 promoter [2] = assay: IL-8 promoter luciferase assay, HeLa cells with PPARγ ΔAF2 mutant; type: cell-based; details: cells transfected with PPARγ ΔAF2 mutant
Protocol: as §1, with “After 3-4 hours, cells were treated with or without 25 nM of phorbol myristate acetate (PMA) for 24 hours.” left out
The IL-8 luciferase reporter controlled by the human IL-8 promoter (-97/-69) was cotransfected with mPPARγ or mPPARγ ΔAF2 mutant into HeLa cells. […] The involvement of PPARγ in regulating IL-8 promoter activity was determined by comparing the IL-8 promoter activity in the presence of wild type PPARγ or its ΔAF2 mutant. […]

3T3 L1 fibroblasts = assay: Adipocyte differentiation assay, Oil Red O staining; type: cell-based; details: 1 μM GW347845, 7 days, 10 μg/ml insulin
Protocol: The adipocyte differentiation assay was performed as described by Mukherjee et. al. (Mol Endocrinol 14: 1425-33, 2000). The 3T3 L1 cells (American Type Culture Collection) were cultured in DMEM media supplemented with 10% calf serum. Two days after reaching confluence, cells were treated with AJA, GW347845, or vehicle (0.1% DMSO) in the presence of 10 μg/ml insulin every other day. After 10 days of treatment with AJA or 7 days with GW347845 at confluence, cells were fixed and stained with Oil Red O (Sigma). For RT-PCR, total cellular RNAs were isolated by TRIzol (Gibco). Reverse transcriptase polymerase chain reaction (RT-PCR) was performed using the superscript first-strand synthesis kit (Invitrogen). After first-strand cDNA was synthesized by use of oligo (dT), cDNA was amplified by PCR. […]
3T3 L1 fibroblasts cells were cultured in DMEM supplemented with 10% calf serum. […] The cells were treated for 10 days with AJA, or 7 days with GW347845, and lipid accumulation in cells was assessed by Oil Red O staining.

[3] = tested on: PPARγ2 and aP2 gene expression in 3T3 L1 cells; assay: RT-PCR of adipocyte-specific genes; type: cell-based; details: versus vehicle control
Protocol: The adipocyte differentiation assay was performed as described by Mukherjee et. al. (Mol Endocrinol 14: 1425-33, 2000). The 3T3 L1 cells (American Type Culture Collection) were cultured in DMEM media supplemented with 10% calf serum. Two days after reaching confluence, cells were treated with AJA, GW347845, or vehicle (0.1% DMSO) in the presence of 10 μg/ml insulin every other day. After 10 days of treatment with AJA or 7 days with GW347845 at confluence, cells were fixed and stained with Oil Red O (Sigma). For RT-PCR, total cellular RNAs were isolated by TRIzol (Gibco). Reverse transcriptase polymerase chain reaction (RT-PCR) was performed using the superscript first-strand synthesis kit (Invitrogen). After first-strand cDNA was synthesized by use of oligo (dT), cDNA was amplified by PCR. The forward primers and reverse primers used in the amplifications were 5′-GCTGTTATGGGTGAAACTCTGGGAG-3′(SEQ ID NO: 1), and 5′-CTTCATGAGGCCTGTTGTAGAGC-3′ (SEQ ID NO:2), for PPARγ2, 5′-GAGCAAATGGAGTTCCCAGATG-3′ (SEQ ID NO: 3), and 5′-GCAAACAATGGGAATAGTTCACAGTAG-3′ (SEQ ID NO: 4), for aP2, and 5′-GACCACAGTCCATGCCATCAC-3′(SEQ ID NO: 5), and 5′-CATACCAGGAAATGAGCTGAC-3′ (SEQ ID NO: 6), for GAPDH. PCR amplifications were performed in 50 μL volume with Taq DNA polymerase for 30 cycles.
To confirm that AJA and GW347845 induce 3T3 L1 cell differentiation into adipocytes, the expression levels of the adipocyte-specific genes PPARγ2 and aP2 were measured by RT-PCR. Total RNA was isolated after AJA or GW347845 treatment, and compared with vehicle control. Reverse transcription was conducted and the relative amounts of PPARγ2 and aP2 transcripts were measured by PCR reactions using primer sets specific to each gene. PCR products were analyzed on 1% agarose gel and stained with Ethidium Bromide. […] As a control for the induction specificity and the PCR amplification reaction, the expression levels of GADPH were measured in all samples, and found not affected by any treatment.

PPARγ = molecular target: T1, PPARγ (Homo sapiens, UniProt P37231); assay: Activation of PPARγ by natural cannabinoids (no method given)
T1 sequence (P37231 1-505): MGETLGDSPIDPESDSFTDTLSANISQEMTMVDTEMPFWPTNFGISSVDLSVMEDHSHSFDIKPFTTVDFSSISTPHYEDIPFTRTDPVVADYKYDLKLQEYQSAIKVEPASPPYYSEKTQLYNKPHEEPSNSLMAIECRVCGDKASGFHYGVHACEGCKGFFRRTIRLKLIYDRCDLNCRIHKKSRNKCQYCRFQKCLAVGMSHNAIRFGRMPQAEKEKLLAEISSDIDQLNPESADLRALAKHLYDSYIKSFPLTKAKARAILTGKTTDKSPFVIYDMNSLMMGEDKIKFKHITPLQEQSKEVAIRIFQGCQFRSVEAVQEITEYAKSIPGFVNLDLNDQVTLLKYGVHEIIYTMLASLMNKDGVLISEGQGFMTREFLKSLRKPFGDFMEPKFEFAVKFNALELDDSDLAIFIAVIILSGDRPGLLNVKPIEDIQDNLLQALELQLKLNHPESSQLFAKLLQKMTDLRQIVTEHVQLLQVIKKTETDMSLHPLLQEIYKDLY

SMILES | reduction of IL-8 promoter activity (human IL-8 promoter [1]) | effect on IL-8 promoter activity (human IL-8 promoter [2]) | lipid accumulation, Oil Red O staining (3T3 L1 fibroblasts) | PPARγ2 gene expression [3] | aP2 gene expression [3] | activation of PPARγ (PPARγ)
COC(=O)c1ccccc1N[C@@H](Cc1ccc(OCCc2nc(-c3ccccc3)oc2C)cc1)C(=O)O [GW347845, reference compound] | dramatically reduced IL-8 promoter activity | not with the ΔAF2 mutant | dramatic increase in lipid droplet staining | enhanced PPARγ2 and aP2 gene expression significantly | enhanced PPARγ2 and aP2 gene expression significantly | 
CCCCCc1cc(O)c2c(c1)OC(C)(C)[C@@H]1CCC(C)=C[C@@H]21 [THC, Tetrahydrocannabinol] |  |  |  |  |  | also activate PPARγ
